# Measured values reported in patent publication US12558428B2, “Heterobifunctional compounds and their use in treating disease” (Halda Therapeutics OpCo, Inc., priority 2024, dated 2026).
# Tested on: T-Rex 293 cells lacking increased expression of estrogen receptor alpha protein
# Assay: Cellular growth inhibition assay, T-Rex 293 cells, (−) doxycycline
# Format: cell-based
# Settings: T-REx-293, 72 h, Table 7-A; T-Rex 293 cells without doxycycline (lacking increased ERα expression); 72 hours; CellTiter-Glo; read-out: (−) Dox GI50
# Summary of the method: (§1)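 Growth of a doxycycline-inducible ERα T-Rex 293 clone, induced or not with 3 ng/mL doxycycline, was followed for 72 h with test compound in hormone-depleted medium. CellTiter-Glo luminescence gave GI50.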
row,Compound,GI50
1,Cc1sc2c(c1C)C(c1ccc(N3CC(CC4(F)CCN(CC5CN(c6ccc([C@@H]7c8ccc(O)cc8CC[C@@H]7c7ccccc7)cc6)C5)CC4)C3)cc1)=N[C@@H](C)c1nnc(C)n1-2 [III-203],500 to 2500 nM
2,Cc1sc2c(c1C)C(c1ccc(N3CCC(O)(CN4CCN(c5ccc([C@@H]6c7ccc(C(=O)O)cc7CC[C@@H]6c6ccc(F)cc6F)cc5)CC4)CC3)cc1)=N[C@@H](C)c1nnc(C)n1-2 [III-204],500 to 2500 nM
3,Cc1sc2c(c1C)C(c1ccc(N3CCC(O)(CN4CCN(c5ccc([C@H]6c7ccc(C(=O)O)cc7CC[C@H]6c6ccc(F)cc6F)cc5)CC4)CC3)cc1)=N[C@@H](C)c1nnc(C)n1-2 [III-205],500 to 2500 nM
4,Cc1sc2c(c1C)C(c1ccc(N3CC4(CCC(O)(CN5CCC(c6ccc([C@@H]7c8ccc(O)cc8CC[C@@H]7c7ccccc7)cc6)CC5)CC4)C3)cc1)=N[C@@H](C)c1nnc(C)n1-2 [III-206],500 to 2500 nM
5,Cc1sc2c(c1C)C(c1ccc(N3CCC(O)(CN4CCN(c5ccc([C@H]6c7ccc(O)cc7CC[C@H]6c6ccc(F)cc6)cc5)CC4)CC3)cc1)=N[C@H](Cc1ncco1)c1nnc(C)n1-2 [III-207],> 2500 nM
6,Cc1sc2c(c1C)C(c1ccc(N3CCC(O)(CN4CCN(c5ccc([C@@H]6c7ccc(O)cc7CC[C@@H]6c6ccc(F)cc6)cc5)CC4)CC3)cc1)=N[C@H](Cc1ncco1)c1nnc(C)n1-2 [III-208],> 2500 nM
7,Cc1sc2c(c1C)C(c1ccc(N3CCC(O)(CN4CCN(c5ccc([C@H]6c7ccc(O)cc7CC[C@H]6c6ccc(F)cc6)cc5)CC4)CC3)cc1)=N[C@@H](Cc1ncco1)c1nnc(C)n1-2 [III-209],50 to 500 nM
8,Cc1sc2c(c1C)C(c1ccc(N3CCC(O)(CN4CCN(c5ccc([C@@H]6c7ccc(O)cc7CC[C@@H]6c6ccc(F)cc6)cc5)CC4)CC3)cc1)=N[C@@H](Cc1ncco1)c1nnc(C)n1-2 [III-210],50 to 500 nM
9,Cc1sc2c(c1C)C(c1ccc(N3CC4(CCC(O)(CN5CCC(c6ccc([C@@H]7c8ccc(O)cc8CC[C@@H]7c7ccccc7)cc6)CC5)CC4)C3)cc1)=N[C@@H](Cc1ncco1)c1nnc(C)n1-2 [III-211],50 to 500 nM
10,Cc1sc2c(c1C)C(c1ccc(N3CC(CN4CCC(F)(CC5CN(c6ccc([C@@H]7c8ccc(O)cc8CC[C@@H]7c7ccccc7)cc6)C5)CC4)C3)cc1)=N[C@@H](C)c1nnc(C)n1-2 [III-212],50 to 500 nM
11,Cc1sc2c(c1C)C(c1ccc(N3CCC(O)(CN4CCN(c5ccc([C@H]6c7ccc(C(=O)O)cc7CC[C@H]6c6ccc(F)cc6F)cc5)CC4)CC3)cc1)=NC(Cc1ncco1)c1nnc(C)n1-2 (stereo partly drawn) [III-213],> 2500 nM
12,Cc1sc2c(c1C)C(c1ccc(N3CCC(O)(CN4CCN(c5ccc([C@@H]6c7ccc(C(=O)O)cc7CC[C@@H]6c6ccc(F)cc6F)cc5)CC4)CC3)cc1)=NC(Cc1ncco1)c1nnc(C)n1-2 (stereo partly drawn) [III-214],50 to 500 nM
13,Cc1sc2c(c1C)C(c1ccc(N3CCN(CC4CCN(c5ccc([C@@H]6c7ccc(O)cc7CC[C@@H]6c6ccccc6)cc5)CC4)CC3)cc1)=N[C@@H](Cn1cccn1)c1nnc(C)n1-2 [III-215],> 2500 nM

# Tested on: T-Rex 293 cells having increased expression of estrogen receptor alpha protein
# Assay: Cellular growth inhibition assay, T-Rex 293 cells, (+) doxycycline
# Format: cell-based
# Settings: T-REx-293, 72 h, Table 7-A; T-Rex 293 cells with doxycycline (increased ERα expression); 72 hours; CellTiter-Glo; read-out: (+) Dox GI50
# Summary of the method: as §1
row,Compound,GI50
1,Cc1sc2c(c1C)C(c1ccc(N3CC(CC4(F)CCN(CC5CN(c6ccc([C@@H]7c8ccc(O)cc8CC[C@@H]7c7ccccc7)cc6)C5)CC4)C3)cc1)=N[C@@H](C)c1nnc(C)n1-2 [III-203],< 50 nM
2,Cc1sc2c(c1C)C(c1ccc(N3CCC(O)(CN4CCN(c5ccc([C@@H]6c7ccc(C(=O)O)cc7CC[C@@H]6c6ccc(F)cc6F)cc5)CC4)CC3)cc1)=N[C@@H](C)c1nnc(C)n1-2 [III-204],< 50 nM
3,Cc1sc2c(c1C)C(c1ccc(N3CCC(O)(CN4CCN(c5ccc([C@H]6c7ccc(C(=O)O)cc7CC[C@H]6c6ccc(F)cc6F)cc5)CC4)CC3)cc1)=N[C@@H](C)c1nnc(C)n1-2 [III-205],50 to 500 nM
4,Cc1sc2c(c1C)C(c1ccc(N3CC4(CCC(O)(CN5CCC(c6ccc([C@@H]7c8ccc(O)cc8CC[C@@H]7c7ccccc7)cc6)CC5)CC4)C3)cc1)=N[C@@H](C)c1nnc(C)n1-2 [III-206],< 50 nM
5,Cc1sc2c(c1C)C(c1ccc(N3CCC(O)(CN4CCN(c5ccc([C@H]6c7ccc(O)cc7CC[C@H]6c6ccc(F)cc6)cc5)CC4)CC3)cc1)=N[C@H](Cc1ncco1)c1nnc(C)n1-2 [III-207],> 2500 nM
6,Cc1sc2c(c1C)C(c1ccc(N3CCC(O)(CN4CCN(c5ccc([C@@H]6c7ccc(O)cc7CC[C@@H]6c6ccc(F)cc6)cc5)CC4)CC3)cc1)=N[C@H](Cc1ncco1)c1nnc(C)n1-2 [III-208],> 2500 nM
7,Cc1sc2c(c1C)C(c1ccc(N3CCC(O)(CN4CCN(c5ccc([C@H]6c7ccc(O)cc7CC[C@H]6c6ccc(F)cc6)cc5)CC4)CC3)cc1)=N[C@@H](Cc1ncco1)c1nnc(C)n1-2 [III-209],< 50 nM
8,Cc1sc2c(c1C)C(c1ccc(N3CCC(O)(CN4CCN(c5ccc([C@@H]6c7ccc(O)cc7CC[C@@H]6c6ccc(F)cc6)cc5)CC4)CC3)cc1)=N[C@@H](Cc1ncco1)c1nnc(C)n1-2 [III-210],< 50 nM
9,Cc1sc2c(c1C)C(c1ccc(N3CC4(CCC(O)(CN5CCC(c6ccc([C@@H]7c8ccc(O)cc8CC[C@@H]7c7ccccc7)cc6)CC5)CC4)C3)cc1)=N[C@@H](Cc1ncco1)c1nnc(C)n1-2 [III-211],< 50 nM
10,Cc1sc2c(c1C)C(c1ccc(N3CC(CN4CCC(F)(CC5CN(c6ccc([C@@H]7c8ccc(O)cc8CC[C@@H]7c7ccccc7)cc6)C5)CC4)C3)cc1)=N[C@@H](C)c1nnc(C)n1-2 [III-212],< 50 nM
11,Cc1sc2c(c1C)C(c1ccc(N3CCC(O)(CN4CCN(c5ccc([C@H]6c7ccc(C(=O)O)cc7CC[C@H]6c6ccc(F)cc6F)cc5)CC4)CC3)cc1)=NC(Cc1ncco1)c1nnc(C)n1-2 (stereo partly drawn) [III-213],> 2500 nM
12,Cc1sc2c(c1C)C(c1ccc(N3CCC(O)(CN4CCN(c5ccc([C@@H]6c7ccc(C(=O)O)cc7CC[C@@H]6c6ccc(F)cc6F)cc5)CC4)CC3)cc1)=NC(Cc1ncco1)c1nnc(C)n1-2 (stereo partly drawn) [III-214],< 50 nM
13,Cc1sc2c(c1C)C(c1ccc(N3CCN(CC4CCN(c5ccc([C@@H]6c7ccc(O)cc7CC[C@@H]6c6ccccc6)cc5)CC4)CC3)cc1)=N[C@@H](Cn1cccn1)c1nnc(C)n1-2 [III-215],< 50 nM

# Tested on: MCF7 cells (ATCC #HTB-22)
# Assay: Cellular growth inhibition assay, MCF7 cells purchased from ATCC
# Format: cell-based
# Settings: Homo sapiens, MCF7, 144 h, Table 8-A; MCF7 cells purchased from ATCC; six days; CellTiter-Glo; read-out: GI50
# Summary of the method: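 GI50 values come from a four-parameter fit of CellTiter-Glo 2.0 luminescence after six days of compound exposure at 37° C. Seeding density depended on the source: 225 cells/well for ECACC MCF7, 1,500 for ATCC. Medium was RPMI 1640 with 10% FBS and 0.2 U/ml insulin.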
row,Compound,GI50
1,Cc1sc2c(c1C)C(c1ccc(N3CC(CC4(F)CCN(CC5CN(c6ccc([C@@H]7c8ccc(O)cc8CC[C@@H]7c7ccccc7)cc6)C5)CC4)C3)cc1)=N[C@@H](C)c1nnc(C)n1-2 [III-203],< 50 nM
2,Cc1sc2c(c1C)C(c1ccc(N3CCC(O)(CN4CCN(c5ccc([C@@H]6c7ccc(C(=O)O)cc7CC[C@@H]6c6ccc(F)cc6F)cc5)CC4)CC3)cc1)=N[C@@H](C)c1nnc(C)n1-2 [III-204],50 to 500 nM
3,Cc1sc2c(c1C)C(c1ccc(N3CCC(O)(CN4CCN(c5ccc([C@H]6c7ccc(C(=O)O)cc7CC[C@H]6c6ccc(F)cc6F)cc5)CC4)CC3)cc1)=N[C@@H](C)c1nnc(C)n1-2 [III-205],50 to 500 nM
4,Cc1sc2c(c1C)C(c1ccc(N3CC4(CCC(O)(CN5CCC(c6ccc([C@@H]7c8ccc(O)cc8CC[C@@H]7c7ccccc7)cc6)CC5)CC4)C3)cc1)=N[C@@H](C)c1nnc(C)n1-2 [III-206],< 50 nM
5,Cc1sc2c(c1C)C(c1ccc(N3CCC(O)(CN4CCN(c5ccc([C@H]6c7ccc(O)cc7CC[C@H]6c6ccc(F)cc6)cc5)CC4)CC3)cc1)=N[C@H](Cc1ncco1)c1nnc(C)n1-2 [III-207],500 to 2500 nM
6,Cc1sc2c(c1C)C(c1ccc(N3CCC(O)(CN4CCN(c5ccc([C@@H]6c7ccc(O)cc7CC[C@@H]6c6ccc(F)cc6)cc5)CC4)CC3)cc1)=N[C@H](Cc1ncco1)c1nnc(C)n1-2 [III-208],500 to 2500 nM
7,Cc1sc2c(c1C)C(c1ccc(N3CCC(O)(CN4CCN(c5ccc([C@H]6c7ccc(O)cc7CC[C@H]6c6ccc(F)cc6)cc5)CC4)CC3)cc1)=N[C@@H](Cc1ncco1)c1nnc(C)n1-2 [III-209],50 to 500 nM
8,Cc1sc2c(c1C)C(c1ccc(N3CCC(O)(CN4CCN(c5ccc([C@@H]6c7ccc(O)cc7CC[C@@H]6c6ccc(F)cc6)cc5)CC4)CC3)cc1)=N[C@@H](Cc1ncco1)c1nnc(C)n1-2 [III-210],< 50 nM
9,Cc1sc2c(c1C)C(c1ccc(N3CC4(CCC(O)(CN5CCC(c6ccc([C@@H]7c8ccc(O)cc8CC[C@@H]7c7ccccc7)cc6)CC5)CC4)C3)cc1)=N[C@@H](Cc1ncco1)c1nnc(C)n1-2 [III-211],< 50 nM
10,Cc1sc2c(c1C)C(c1ccc(N3CC(CN4CCC(F)(CC5CN(c6ccc([C@@H]7c8ccc(O)cc8CC[C@@H]7c7ccccc7)cc6)C5)CC4)C3)cc1)=N[C@@H](C)c1nnc(C)n1-2 [III-212],< 50 nM
11,Cc1sc2c(c1C)C(c1ccc(N3CCC(O)(CN4CCN(c5ccc([C@H]6c7ccc(C(=O)O)cc7CC[C@H]6c6ccc(F)cc6F)cc5)CC4)CC3)cc1)=NC(Cc1ncco1)c1nnc(C)n1-2 (stereo partly drawn) [III-213],> 2500 nM
12,Cc1sc2c(c1C)C(c1ccc(N3CCC(O)(CN4CCN(c5ccc([C@@H]6c7ccc(C(=O)O)cc7CC[C@@H]6c6ccc(F)cc6F)cc5)CC4)CC3)cc1)=NC(Cc1ncco1)c1nnc(C)n1-2 (stereo partly drawn) [III-214],< 50 nM
13,Cc1sc2c(c1C)C(c1ccc(N3CCN(CC4CCN(c5ccc([C@@H]6c7ccc(O)cc7CC[C@@H]6c6ccccc6)cc5)CC4)CC3)cc1)=N[C@@H](Cn1cccn1)c1nnc(C)n1-2 [III-215],< 50 nM
